Laboratory results reported in DBAASP.
≈ marks a conversion by molar mass, not a printed value. One block for each compound: values may come before it.

How the values were obtained:
Experiment in all cases: ≥ marks a high value that may be exact or a test limit, other limits are often not marked, values filed in µg/mL are converted to µM
[1] = test system: Staphylococcus aureus IFO 12732
[2] = test system: Bacillus subtilis IFO 3143
[3] = test system: Escherichia coli IFO 12734
[4] = test system: Pseudomonas aeruginosa IFO 12582
[5] = test system: Xanthomonas axonopodis pv. citri
[6] = test system: Escherichia coli ATCC 25922
[7] = test system: Staphylococcus aureus ATCC 29313
[8] = test system: Pseudomonas aeruginosa ATCC 27853
[9] = test system: Staphylococcus aureus ATCC 25923
[10] = test system: Acinetobacter baumannii NM8
[11] = test system: Klebsiella pneumoniae ATCC 700603
[12] = test system: Escherichia coli ATCC 25726
[13] = test system: Staphylococcus epidermidis RP62A
[14] = test system: Stenotrophomonas maltophilia B32/4
[15] = test system: Candida albicans ATCC 90028
[16] = test system: Staphylococcus epidermidis RP62A/1
[17] = test system: Bacillus subtilis IFO 3513
[18] = test system: Enterococcus faecium ATCC 19434
[19] = test system: Staphylococcus aureus
[20] = test system: Aspergillus flavus KCTC 1375
[21] = test system: Escherichia coli O157:H7 ATCC 43895
[22] = test system: Malassezia furfur KCTC 7744
[23] = test system: Enterococcus faecium
[24] = test system: Pseudomonas aeruginosa
[25] = test system: Escherichia coli
[26] = test system: Staphylococcus aureus KCTC 1621
[27] = test system: Aspergillus flavus KCTC 7375
[28] = test system: Proteus vulgaris
[29] = test system: Candida albicans KCTC 7121
[30] = test system: Bacillus megaterium KCTC 1096
[31] = test system: Escherichia coli KCTC 1682
[32] = test system: Bacillus subtilis KCTC 1918
[33] = test system: Fusarium oxysporum KCTC 6084
[34] = test system: Pseudomonas aeruginosa KCTC 1637
[35] = test system: Trichosporon beigelii KCTC 7251
[36] = test system: Staphylococcus aureus ATCC 49230
[37] = test system: Staphylococcus epidermidis ATCC 35984
[38] = test system: Aspergillus fumigatus
[39] = test system: Escherichia coli OP50

Compound: CC(C)C[C@H](NC(=O)[C@H](Cc1ccc(O)cc1)NC(=O)[C@H](Cc1cnc[nH]1)NC(=O)[C@@H](NC(=O)[C@H](CC(C)C)NC(=O)[C@H](C)NC(=O)[C@H](C)NC(=O)[C@H](CCCCN)NC(=O)CNC(=O)[C@@H](NC(=O)[C@H](Cc1cnc[nH]1)NC(=O)[C@H](CCCCN)NC(=O)CNC(=O)[C@@H](NC(=O)[C@H](Cc1cnc[nH]1)NC(=O)[C@H](C)NC(=O)[C@H](C)NC(=O)[C@H](CCCCN)NC(=O)[C@H](CCCCN)NC(=O)[C@H](Cc1ccccc1)NC(=O)[C@H](Cc1ccccc1)NC(=O)[C@H](CO)NC(=O)[C@H](C)NC(=O)[C@H](Cc1c[nH]c2ccccc12)NC(=O)[C@H](C)N)C(C)C)C(C)C)[C@@H](C)O)C(=O)O [AWASFFKKAAHVGKHVGKAALTHYL]
MIC [1]: 2.92 µM (≈ 8 µg/mL) | MIC [2]: 2.92 µM (≈ 8 µg/mL) | MIC [3]: 5.84 µM (≈ 16 µg/mL) | MIC [4]: 23.4 µM (≈ 64 µg/mL)

Compound: CC(C)C[C@H](NC(=O)[C@H](CO)NC(=O)[C@H](CCCCN)NC(=O)[C@H](CC(C)C)NC(=O)[C@H](CCCCN)NC(=O)[C@H](CC(=O)O)NC(=O)[C@H](CC(C)C)NC(=O)[C@H](Cc1c[nH]c2ccccc12)NC(=O)[C@H](C)N)C(=O)NCC(=O)N[C@@H](CCCCN)C(=O)N[C@H](C(=O)N[C@H](C(=O)NCC(=O)O)C(C)C)C(C)C [AWLDKLKSLGKVVG]
MIC [5]: 5 µM (≈ 7.57 µg/mL) | MIC [6]: 85 µM (≈ 129 µg/mL) | MIC [7]: ≥ 170 µM | MIC [8]: 170 µM (≈ 257 µg/mL)

Compound: CC[C@H](C)[C@H](N)C(=O)N[C@@H](CC(C)C)C(=O)NCC(=O)N[C@@H](CCCCN)C(=O)N[C@@H](CC(C)C)C(=O)N[C@@H](CC(C)C)C(=O)N[C@@H](CCCCN)C(=O)N[C@H](C(=O)N[C@@H](C)C(=O)N[C@@H](C)C(=O)N[C@@H](CCCCN)C(=O)N[C@@H](CC(C)C)C(=O)N[C@@H](CC(C)C)C(=O)N[C@@H](CO)C(=O)N[C@@H](CC(N)=O)C(=O)N[C@@H](CC(C)C)C(N)=O)[C@@H](C)O [ILGKLLKTAAKLLSNL]
MIC [9]: 4 µM (≈ 6.78 µg/mL) | MIC [10]: 4 µM (≈ 6.78 µg/mL) | MIC [11]: 16 µM (≈ 27.1 µg/mL) | MIC [12]: 16 µM (≈ 27.1 µg/mL) | MIC [13]: 2 µM (≈ 3.39 µg/mL) | MIC [14]: 4 µM (≈ 6.78 µg/mL) | MIC [15]: 8 µM (≈ 13.6 µg/mL) | MIC [8]: 8 µM (≈ 13.6 µg/mL) | MIC [16]: 2 µM (≈ 3.39 µg/mL)

Compound: CC[C@H](C)[C@H](N)C(=O)N[C@@H](CC(C)C)C(=O)N1CCC[C@H]1C(=O)N[C@@H](Cc1c[nH]c2ccccc12)C(=O)N[C@@H](CCCCN)C(=O)N[C@@H](Cc1c[nH]c2ccccc12)C(=O)N1CCC[C@H]1C(=O)N[C@@H](Cc1c[nH]c2ccccc12)C(=O)N[C@@H](CC(C)C)C(=O)N1CCC[C@H]1C(=O)N[C@@H](Cc1c[nH]c2ccccc12)C(=O)N[C@@H](CCCN=C(N)N)C(=O)N[C@@H](CCCN=C(N)N)C(N)=O [ILPWKWPWLPWRR]
MIC [1]: 0.851 µM (≈ 1.56 µg/mL) | MIC [17]: 0.851 µM (≈ 1.56 µg/mL) | MIC [3]: 6.81 µM (≈ 12.5 µg/mL)

Second part, the compound after the results:

MIC [18]: ≥ 40 µM | MIC [9]: 28.3 µM (≈ 57.4 µg/mL) | MIC [19]: 28.3 µM (≈ 57.4 µg/mL) | MIC [20]: ≥ 40 µM | MIC [21]: 28.3 µM (≈ 57.4 µg/mL) | MIC [22]: ≥ 56.6 µM | MIC [15]: ≥ 40 µM | MIC [23]: ≥ 40 µM | MIC [8]: 40 µM (≈ 81.1 µg/mL) | MIC [24]: 40 µM (≈ 81.1 µg/mL) | MIC [25]: 28.3 µM (≈ 57.4 µg/mL)
Compound: CC(C)C[C@H](NC(=O)[C@H](Cc1ccc(O)cc1)NC(=O)[C@H](Cc1cnc[nH]1)NC(=O)[C@@H](NC(=O)[C@H](CC(C)C)NC(=O)[C@H](C)NC(=O)[C@H](C)NC(=O)[C@H](CCCCN)NC(=O)CNC(=O)[C@@H](NC(=O)[C@H](Cc1cnc[nH]1)NC(=O)[C@H](CCCCN)NC(=O)CNC(=O)[C@@H](NC(=O)[C@H](Cc1cnc[nH]1)NC(=O)[C@H](C)NC(=O)[C@H](C)NC(=O)[C@H](CCCCN)NC(=O)[C@@H](N)CCCCN)C(C)C)C(C)C)[C@@H](C)O)C(N)=O [KKAAHVGKHVGKAALTHYL]

MIC [26]: 3.12 µM (≈ 7.24 µg/mL) | MIC [27]: 25 µM (≈ 57.9 µg/mL) | MIC [28]: 6.25 µM (≈ 14.5 µg/mL) | MIC [29]: 25 µM (≈ 57.9 µg/mL) | MIC [30]: 1.56 µM (≈ 3.61 µg/mL) | MIC [31]: 12.5 µM (≈ 29 µg/mL) | MIC [32]: 1.56 µM (≈ 3.61 µg/mL) | MIC [33]: ≥ 50 µM | MIC [34]: 3.12 µM (≈ 7.24 µg/mL) | MIC [35]: 12.5 µM (≈ 29 µg/mL)
Compound: CC[C@H](C)[C@H](NC(=O)[C@H](CCCCN)NC(=O)[C@H](CCCCN)NC(=O)[C@H](Cc1ccccc1)NC(=O)[C@H](CC(C)C)NC(=O)[C@H](CCCCN)NC(=O)[C@H](Cc1c[nH]c2ccccc12)NC(=O)[C@@H](N)CCCCN)C(=O)N[C@@H](CC(C)C)C(=O)N[C@@H](CCCCN)C(=O)N[C@@H](Cc1ccccc1)C(=O)N[C@@H](CC(C)C)C(=O)N[C@@H](Cc1cnc[nH]1)C(=O)N[C@@H](CC(C)C)C(=O)N[C@@H](C)C(=O)N[C@@H](CCCCN)C(=O)N[C@@H](CCCCN)C(=O)N[C@@H](Cc1ccccc1)C(N)=O [KWKLFKKILKFLHLAKKF]

MIC [36]: 2.17 µM (≈ 4 µg/mL) | MIC [6]: 8.66 µM (≈ 16 µg/mL) | MIC [37]: 1.08 µM (≈ 2 µg/mL) | MIC [38]: 3.6 µM (≈ 6.65 µg/mL) | MIC [8]: 2.17 µM (≈ 4 µg/mL)
Compound: CC(C)C[C@H](NC(=O)[C@H](CC(C)C)NC(=O)[C@H](Cc1ccccc1)NC(=O)[C@H](CC(C)C)NC(=O)[C@H](CC(C)C)NC(=O)[C@@H](N)CC(C)C)C(=O)N[C@@H](CCCCN)C(=O)N[C@@H](CCCCN)C(=O)N[C@@H](CCCN=C(N)N)C(=O)N[C@@H](CCCCN)C(=O)N[C@@H](CCCCN)C(=O)N[C@@H](CCCN=C(N)N)C(=O)N[C@@H](CCCCN)C(=O)N[C@@H](Cc1ccc(O)cc1)C(=O)O [LLLFLLKKRKKRKY]

MIC [19]: 7.5 µM (≈ 34.6 µg/mL) | MIC [39]: 30 µM (≈ 138 µg/mL)
Compound: CC(C)[C@@H]1NC(=O)[C@@H]2CSSC[C@@H]3NC(=O)[C@H](CCCCN)NC(=O)CNC(=O)[C@H](CCC(=O)O)NC(=O)[C@H](CC(=O)O)NC(=O)[C@H]([C@@H](C)O)NC(=O)[C@@H]4CCCN4C(=O)[C@@H](NC(=O)CNC(=O)[C@H](Cc4ccc(O)cc4)NC(=O)[C@@H]4CCCN4C(=O)[C@H](CC(N)=O)NC(=O)[C@H](CCC(=O)O)NC(=O)[C@@H](N)Cc4ccc(O)cc4)CSSC[C@H](NC(=O)[C@H](Cc4ccc(O)cc4)NC(=O)CNC(=O)CNC(=O)[C@H](CCC(=O)O)NC(=O)[C@H](Cc4ccccc4)NC(=O)[C@H](CCC(=O)O)NC(=O)[C@H](CO)NC(=O)[C@H](CC(=O)O)NC(=O)[C@H](CC(N)=O)NC(=O)[C@H](CSSC[C@@H](C(=O)N[C@@H](Cc4ccc(O)cc4)C(=O)N[C@@H](CCCN=C(N)N)C(=O)N[C@H](C(=O)O)[C@@H](C)O)NC1=O)NC(=O)[C@H](CCCN=C(N)N)NC(=O)[C@H](CC(=O)O)NC(=O)[C@H](Cc1ccccc1)NC3=O)C(=O)NCC(=O)NCC(=O)N[C@@H](CO)C(=O)N[C@@H](Cc1ccc(O)cc1)C(=O)N[C@@H](CCCN=C(N)N)C(=O)N[C@@H](C)C(=O)N[C@@H]([C@@H](C)O)C(=O)N2 [YENPYGCPTDEGKCFDRCNDSEFEGGYCGGSYRATCVCYRT]
